Structures are written as SMILES. Bounds are passed on as bounds.

Usually IC50 stands for the point on the concentration scale where inhibition reaches its midpoint. The low end stands for greater potency in that assay, the high end for weaker potency in that assay.

For this assay, the target named is LSD-1 enzyme (Homo sapiens (Human), UniProt O60341). In words: LANCE LSD1/KDM1A demethylase assay (LSD1 histone demethylase biochemical assay). As to conditions: 1 nM LSD-1 enzyme, 1 hour preincubation at 25° C., 0.4 μM biotin-labeled Histone H3 peptide substrate. The method, then:
LANCE LSD1/KDM1A demethylase assay—10 μL of 1 nM LSD-1 enzyme (ENZO BML-SE544-0050) in the assay buffer (50 mM Tris, pH 7.5, 0.01% Tween-20, 25 mM NaCl, 5 mM DTT) were preincubated for 1 hour at 25° C. with 0.8 μL compound/DMSO dotted in black 384 well polystyrene plates. […] After stopping the reactions plates were incubated for 30 minutes and read on a PHERAstar FS plate reader (BMG Labtech).
(In general: TR-FRET usually uses a lanthanide donor and a delayed reading to cut background.)
With `CNC(=O)CC1(N2CCC(N[C@@H]3C[C@H]3c3ccccc3)CC2)CN(C2CCOCC2)C1` [Example 122, N-methyl-2-[3-(4-{[(1R,2S)-2-phenylcyclopropyl]amino}piperidin-1-yl)-1-(tetrahydro-2H-pyran-4-yl)azetidin-3-yl]acetamide], the IC50 is at most 100 nM.

The molecule `CN(C)C(=O)CC1(N2CCC(N[C@@H]3C[C@H]3c3ccccc3)CC2)CN(CC2CC2)C1` [Example 123, 2-[1-(cyclopropylmethyl)-3-(4-{[(1R,2S)-2-phenylcyclopropyl]amino}piperidin-1-yl)azetidin-3-yl]-N,N-dimethylacetamide] returned an IC50 of at most 100 nM.

Regarding `CNC(=O)CC1(N2CCC(N[C@@H]3C[C@H]3c3ccccc3)CC2)CN(CC2CC2)C1` [Example 124, 2-[1-(cyclopropylmethyl)-3-(4-{[(1R,2S)-2-phenylcyclopropyl]amino}piperidin-1-yl)azetidin-3-yl]-N-methylacetamide], the IC50 was at most 100 nM.

Molecule `O=C(O)CC1(N2CCC(N[C@@H]3C[C@H]3c3ccccc3)CC2)CN(Cc2ncccn2)C1` [Example 125, [3-(4-{[(1R,2S)-2-phenylcyclopropyl]amino}piperidin-1-yl)-1-(pyrimidin-2-ylmethyl)azetidin-3-yl]acetic acid] registered an IC50 of at most 100 nM.

For `O=C(O)CC1(N2CCC(N[C@@H]3C[C@H]3c3ccccc3)CC2)CN(Cc2cncnc2)C1` [Example 126, [3-(4-{[(1R,2S)-2-phenylcyclopropyl]amino}piperidin-1-yl)-1-(pyrimidin-5-ylmethyl)azetidin-3-yl]acetic acid], the IC50 is at most 100 nM.

In turn, `O=C(O)CC1(N2CCC(N[C@@H]3C[C@H]3c3ccccc3)CC2)CN(Cc2cscn2)C1` [Example 127, [3-(4-{[(1R,2S)-2-phenylcyclopropyl]amino}piperidin-1-yl)-1-(1,3-thiazol-4-ylmethyl)azetidin-3-yl]acetic acid] returned an IC50 of at most 100 nM.

As to `O=C(O)CC1(N2CCC(N[C@@H]3C[C@H]3c3ccccc3)CC2)CN(Cc2cncs2)C1` [Example 128, [3-(4-{[(1R,2S)-2-phenylcyclopropyl]amino}piperidin-1-yl)-1-(1,3-thiazol-5-ylmethyl)azetidin-3-yl]acetic acid], the IC50 is at most 100 nM.

In turn, `O=C(O)CC1(N2CCC(N[C@@H]3C[C@H]3c3ccccc3)CC2)CN(Cc2nccs2)C1` [Example 129, [3-(4-{[(1R,2S)-2-phenylcyclopropyl]amino}piperidin-1-yl)-1-(1,3-thiazol-2-ylmethyl)azetidin-3-yl]acetic acid] gave an IC50 of at most 100 nM.

`O=C(O)CC1(N2CCC(N[C@@H]3C[C@H]3c3ccccc3)CC2)CN(CCC(F)(F)F)C1` [Example 130, [3-(4-{[(1R,2S)-2-phenylcyclopropyl]amino}piperidin-1-yl)-1-(3,3,3-trifluoropropyl)azetidin-3-yl]acetic acid] gave an IC50 of at most 100 nM.

The values above are taken from patent publication US9994546B2, “Cyclopropylamines as LSD1 inhibitors” (Incyte Corporation, priority 2014, dated 2018).
